Read-outs that look alike come from different tables or passages of the source.
Legend:
[1] = Skin accumulation (extraction of skin after the permeation experiment); format: in vitro ADME, porcine; conditions: after 24 h experiment
Procedure: After completion of permeation experiment, the skin was extracted to estimate the residual amount of tested active ingredients accumulated in it. […] Extraction was carried out as follows: after the experiment was completed, the Franz diffusion chambers were dismantled, while the skin surface was washed three times with an aqueous solution of sodium lauryl sulfate (at a concentration of 0.5% w/w) to rinse of the excess of vehicle containing test compound. A patch (1 cm^2 diffusion surface) was cut from the skin prepared in this way, dried at room temperature, and then weighed and cut into smaller pieces. […] The obtained extracts were then centrifuged at 3,500 rpm for 5 min. The supernatant was analyzed by HPLC to determine the content of active ingredients, while tests on the antioxidant activity of the obtained extracts was evaluated using the DPPH, Folin–Ciocalteau, and ABTS methods.
(§1) The permeation rate was determined based on the amount of permeated compound over a given period (μg/cm^2/h).
(§2) The samples were analyzed by high-performance liquid chromatography (HPLC) with a UV detector (Knauer, Berlin, Germany). […] The flow rate of the mobile phase, consisted of acetonitrile, water, and MeOH (28:64:8, by vol), was 1 ml/min. Twenty microliters of each analyzed sample was injected onto the column.

[2] = DPPH radical reduction by ethanolic solutions of eugenol and EDChA (IC50); format: biochemical; conditions: ethanolic solution, 10 min incubation, 517 nm; read-out: IC50, concentration reducing 50% of free radicals (DPPH method)
Procedure: Antioxidative activity of ethanolic solutions of eugenol and its new derivative (EDChA) were determined using spectrophotometric method based on DPPH radical reduction as described elsewhere ([Brand-Williams et al., 1995]; [Makuch et al., 2020]). The absorbance at the wavelength of 517 nm was measured using Spectroquant Pharo 300 (Merck, Germany). The antioxidant activity of eugenol and its ester was measured as follows: to 2,850 µl of DPPH ethanolic solution (absorbance at 517 nm 1.00 ± 0.02) 150 µl of the sample (containing one of the tested compound at a concentration of 1.000 w/w) was added. The concentration of the analyzed sample in DPPH ethanolic solution was 0.050% w/w. The tube was wrapped in aluminum foil, sealed with a stopper and incubated for 10 min at room temperature. Each sample was prepared in triplicate. After incubation, spectrophotometric measurements were carried out at 517 nm. Solvent applied to obtain extracts was used as reference. The results were expressed as radical scavenging activity (RSA) ([Nowak et al., 2019]). For each studied compound calibration curve of RSA vs. concentration (0.006–50.000% w/v) was prepared to calculate IC50, i.e. the concentration of the compound reducing 50% of free radicals. The concentration range of the analyzed samples in DPPH ethanolic solution were 0.0003–2.5000% w/v.

[3] = In vitro skin permeation in Franz diffusion cell; format: in vitro ADME, porcine
Procedure: The skin permeability for vehicles containing eugenol and EDChA were assessed in a Franz diffusion cell consisted of a 2 ml donor chamber and an 8 ml acceptor chamber. The permeation area was 1 cm^2. The acceptor fluid, mixed with a magnetic stirrer, was a PBS (phosphate-buffered saline, pH 7.4) solution that maintained the physiological pH. […] Before starting the test, Franz diffusion cells were allowed to equilibrate at 37°C for 15 min. Porcine skin was used for the study due to its similar permeability properties to human skin. The skin was from a local slaughterhouse. A fresh portion of skin from the abdomen was washed several times with a solution of PBS. Skin with a thickness of 0.5 mm was cut with a dermatome, and then it was wrapped in aluminum foil and frozen at –20°C for a maximum of 3 months. […] Before the study, the skin was thawed at room temperature for about 30 min, and then it was soaked in a PBS solution for 15 min to hydrate it. In the next stage, the skin was mounted in Franz diffusion cells. The integrity of skin was checked 1 h after its installation in the Franz diffusion chamber (SES GmbH Analyze Systeme, Germany). […] To make the measurement, the tips of the probes were immersed in the donor and acceptor chambers filled with the PBS solution.
Preparations (1.000 g) containing one of the test compound (eugenol and EDChA) were placed in the donor chamber. All donor chambers were closed with a plastic stopper to prevent excessive evaporation of the vehicle. […] The samples were analyzed by high-performance liquid chromatography (HPLC).
as §1, §2

[4] = Total polyphenole content by Folin-Ciocalteu method on acceptor fluid and solution after skin extraction
Procedure: The antioxidant activity of acceptor fluid taken after 24 h of permeation, and solutions obtained after skin extraction performed after the experiment was determined using the DPPH (according to the procedure described above) ([Brand-Williams et al., 1995]; [Makuch et al., 2020]), ABTS ([Makuch et al., 2020]) and Folin–Ciocalteau ([Nowak et al., 2019]; [Makuch et al., 2020]) methods. The ABTS assay is based on the generation of a blue/green ABTS radical, which is applicable to both hydrophilic and lipophilic antioxidant systems; whereas DPPH assay uses a radical dissolved in organic media and is, therefore, applicable to hydrophobic systems ([Molyneux 2004]). To determine the total content of phenolic compounds in the tested samples the method based on the use of the Folin–Ciocalteu reagent in alkaline medium was applied. The reaction is based on the spectrophotometrically recorded color change of the test solution from yellow to blue. Folin–Ciocalteu reagent was diluted tenfold with water in a dark bottle and incubated at room temperature for 60 min. […] The cuvette was sealed with a stopper and incubated for 15 min at room temperature. […]

[5] = design: method as in Floegel et al., 2011; conditions: literature value; ref Floegel et al., 2011; read-out: IC50 described in the literature (DPPH); cited from earlier work
[6] = shake-flask method; ref Makuch et al., 2020; cited from earlier work

Row | SMILES | Skin accumulation of substance ([1]; cream vehicles) [µg/cm^2 skin] | Skin accumulation of substance ([1]; gel vehicles) [µg/cm^2 skin] | IC50 [2] [mM] | Cumulative mass of substance after 24 h of permeation test ([3]; cream vehicles, 1.000% w/w active, acceptor PBS pH 7.4, 1 cm^2) [µg] | Mass of substance in the acceptor fluid after 24 h of permeation ([3]; gel vehicles, 1.000% w/w active, acceptor PBS pH 7.4, 1 cm^2) [µg] | Antioxidant activity (Folin-Ciocalteu method) of solution obtained after skin extraction ([4]; cream vehicle) [mmol GA/dm^3] | IC50 [5] [µM] | log p [6] | Cumulative mass of substance after 24 h of permeation test ([3]; pig, 24 h, 1 % w/w, pH 7.4) [µg] | Mass of substance in the acceptor fluid after 24 h of permeation ([3]; pig, 24 h, 1 % w/w, pH 7.4) [µg] | Total polyphenole content (folin-ciocalteu method), solution after skin extraction ([4]; cream vehicles) [mmol GA/dm^3]
1 | C=CCc1ccc(OC(=O)C(Cl)Cl)c(OC)c1 [EDChA, eugenyl dichloroacetate] | 173.9 ± 8.4 | 255.9 ± 20.1 | 4.28 | 19.6 ± 1.8 | 28.8 ± 2.6 | 0.3 ± 0.1 | – | – | – | – | –
2 | C=CCc1ccc(O)c(OC)c1 [Eugenol, 4-allyl-2-methoxyphenol] | – | – | 0.0061 | – | – | – | 50.4 | 2.20 ± 0.001 | 20.5 ± 0.8 | 31.3 ± 4.3 | 0.2 ± 0.1

— publication PMC8267472, “The Effect of Cream and Gel Vehicles on the Percutaneous Absorption and Skin Retention of a New Eugenol Derivative With Antioxidant Activity” (Frontiers in Pharmacology, 2021)
